# Where two headings read alike, the source gives them in different places.
# Legend:
# CDC7/DBF4 kinase = CDC7/DBF4 kinase (Homo sapiens, UniProt O00311); experiment: ADP-Glo kinase assay, inhibition of CDC7/DBF4 kinase activity; format: biochemical; conditions: for IC50: CDC7/DBF4, 10 μM ATP
# Excerpt: The ADP-Glo™ kinase assay is a chemiluminescent kinase assay. The reaction of kinase with substrate requires ATP to provide energy, thereby converting ATP into ADP. The enzymatic activity is reflected by the amount of ADP produced in the reaction. In the assay, ADP is converted into ATP, and then ATP binds to Ultra-Glo™ Luciferase with light emitted; the intensity of light emission is directly proportional to the amount of ADP.
# The ADP-Glo™ assay was used to investigate the inhibitory effect of crystal form A of the test compound of formula (II) on the activity of CDC7/DBF4 kinase. The highest concentration of the test compound was 10 μM, and 5-fold serial dilution was performed to obtain 8 concentration points. The compound was re-tested on a different day, and each test was performed in duplicate.
# • 1) Preparation of 10 mM DTT (freshly prepared at the time of use) • 1 μL of 0.1 M DTT was measured out and 9 μL of deionized water was added. • 2) 2× assay buffer (freshly prepared at the time of use) • 168 μL of Kinase assay buffer III was measured out and 2.5-fold diluted with 248 μL of deionized water, and 4.2 μL of 10 mM DTT was added. The buffer was kept on ice before use. • 3) 1× assay buffer (freshly prepared at the time of use) • 250 μL of 2× assay buffer was measured out and diluted into 1× assay buffer by adding 250 μL of deionized water. The buffer was kept on ice before use. • 4) ADP-Glo Kinase Assay
# The kit contains an ADP-Glo™ reagent, a kinase assay solution, a kinase assay solution matrix and a 10 mM ATP stock solution.
# Preparation of the kinase assay solution: The kinase assay buffer and the kinase assay solution matrix were equilibrated to room temperature and then mixed. After complete dissolution, the solution was ready. The unused solution should be aliquoted and stored at −20° C.
# ADP-Glo™ reagent: The reagent was equilibrated to room temperature at the time of the first use. The unused solution should be aliquoted and stored at −20° C.
# • 1) 10 mM test compound was diluted to 1 mM with 100% DMSO: 5 μL of 10 mM test compound was added to 45 μL of 100% DMSO; the concentration of the compound dilution was 1 mM, and the dilution was put into row A of a 384-well compound plate as the highest concentration. • 2) To row B through row H of the 384-well compound plate was added 20 μL of 100% DMSO. • 3) From row A, 5 μL of compound was transferred to row B, and the mixture was well mixed. Then 5 μL of compound was transferred from row B to row C, and the mixture was well mixed. This procedure was repeated to row H to complete the serial dilution of the compound. • 4) Preparation of compound working solutions: 0.5 μL/well of compound was transferred to a new 384-well compound plate, and 9.5 μL of 1× assay buffer was added. […]
# [1] = Stability test under accelerated conditions (HPLC related substances, appearance, crystal form, ee); format: physicochemical; design: impurity at RRT 0.31 / impurity at RRT 1.40 / impurity at RRT 0.23 / impurity at RRT 0.91 / impurity at RRT 0.98 / impurity at RRT 0.99 / impurity at RRT 1.08: unit not given here
# Protocol: Instrument model: Agilent 1200 high performance liquid chromatograph
# 50 mg of crystal form A of the compound of formula (II) was measured and placed in a dry, clean glass bottle, spread into a thin layer, and left to stand under accelerated conditions (60° C., 25/92.5% RH, 40° C./75% RH and 60° C./75% RH). The sample was completely exposed, and the bottle was covered with aluminum foil in which holes are pricked. Samples were taken at 5 days, 10 days, 1 month, 2 months and 3 months and analyzed.
# [2] = Hygroscopicity test (25° C., saturated ammonium chloride solution, 24 h); format: physicochemical; conditions: 25° C./80% RH criteria
# Protocol: A dry glass weighing bottle with a lid was placed in a dryer with saturated ammonium chloride solution placed in the lower part, and the weighing bottle was left to stand uncovered. A lid was put on the dryer, and the dryer was placed in a 25° C. box and left to stand overnight. After being left to stand overnight, the weighing bottle was taken out and precisely weighed, and the weight was denoted by m1.
# A proper amount of crystal form A of the compound of formula (II) was measured out and spread in the weighed measuring bottle (the sample was about 1 mm thick). The measuring bottled was then precisely weighed, and the weight was denoted by m2.
# The weighing bottle, together with its lid, was placed in a dryer with saturated ammonium chloride solution placed in the lower part and left to stand uncovered. A lid was put on the dryer, and the dryer was placed in a 25° C. box and left to stand for 24 h. After 24 h of sitting, the lid was put on the weighing bottle and the bottle was taken out and precisely weighed, the weight denoted by m3.
# The hygroscopic weight gain was calculated using the formula: percent weight gain=100%×(m3−m2)/(m2−m1).
# COLO205 cells = experiment: CellTiter-Glo cell viability assay, proliferation of COLO205 cells; format: cell-based, Human; conditions: for IC50: Homo sapiens, COLO 205, 72 h, COLO205, 3 days incubation
# Excerpt: In the assay, the inhibitory effect of crystal form A of the compound of formula (II) on the proliferation of colorectal cell COLO205 that highly expresses Cdc7 was investigated.
# CellTiter-Glo® Luminescent Cell Viability Assay is a homogeneous rapid assay for the viability of living cells in cultures by ATP quantification. ATP is an indicator of the metabolism of living cells. Cell lysis and the luminescence signals generated are directly proportional to the amount of ATP that exists, and the amount of ATP is directly proportional to the number of living cells in cultures.
# Cells having achieved 80%-90% cell fusion were digested with pancreatin. After the digestion was stopped with 1 mL of culture medium, the cells were transferred to a new culture dish according to a proper proportion, and 10 mL of fresh cell culture medium was added to the culture dish. Then the cell culture dish was placed in a 37° C., 5% CO2 incubator to continue the culture.
# The compound was diluted to 2 mM with 100% DMSO—that is, 5 μL of 10 mM compound stock solution was transferred to column 1 of a 96-well compound plate, 20 μL of 100% DMSO was then added, and the mixture was well mixed. To column 2 through column 9 of the 96-well compound plate was added 20 μL of 100% DMSO. From column 1, 10 μL of compound was transferred to column 2, and the mixture was well mixed. Then 10 μL of compound was transferred from column 2 to column 3, and the mixture was well mixed. This procedure was repeated to column 9 to complete the serial dilution of the compound. Preparation of compound working solutions: From the compound plate, 2 μL/well of compound was transferred to a new 96-well compound plate, and 78 μL/well of cell culture medium was added. To a negative control well was added 2 μL of 100% DMSO followed by 78 μL of cell culture medium. The compound concentration was the final concentration. The blank control well was a culture medium well containing no cells. The negative control was […].
# COLO205 cells having achieved 80%-90% cell fusion were digested with pancreatin and counted. After counting, the cell suspension was diluted with cell culture medium to a desired density. To each well of a 96-well cell culture plate was inoculated 80 μL of cell suspension. […]
# After the incubation, 100 μL of CTG assay reagent was added to each well of the cell plate, and the plate was incubated at 25° C. for 10 min. After the incubation, luminescence signals were measured on Envision.
# The signal value of the background blank control well was subtracted from the measured signal value of each group for standardization. […]
# The percent inhibition was calculated from the original readings according to the calculation formula. A graph was then plotted using Prism and the IC50 of the compound was calculated.
# Sequence of CDC7/DBF4 kinase (O00311 whole entry): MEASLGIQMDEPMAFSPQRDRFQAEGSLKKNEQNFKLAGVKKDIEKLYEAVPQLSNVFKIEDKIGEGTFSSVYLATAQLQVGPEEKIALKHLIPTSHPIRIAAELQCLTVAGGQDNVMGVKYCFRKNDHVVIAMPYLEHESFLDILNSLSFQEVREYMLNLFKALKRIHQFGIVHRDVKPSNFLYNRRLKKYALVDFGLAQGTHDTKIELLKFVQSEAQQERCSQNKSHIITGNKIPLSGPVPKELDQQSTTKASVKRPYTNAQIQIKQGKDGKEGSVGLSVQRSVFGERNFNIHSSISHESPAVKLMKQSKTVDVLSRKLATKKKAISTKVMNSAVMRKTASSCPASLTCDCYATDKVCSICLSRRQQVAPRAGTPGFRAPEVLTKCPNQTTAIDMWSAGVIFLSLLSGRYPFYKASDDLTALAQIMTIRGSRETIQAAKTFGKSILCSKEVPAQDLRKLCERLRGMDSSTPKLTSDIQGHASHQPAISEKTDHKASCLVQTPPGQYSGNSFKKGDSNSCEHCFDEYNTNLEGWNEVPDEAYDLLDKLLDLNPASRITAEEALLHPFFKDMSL
# Sequence of CDC7/DBF4 kinase (Q9UBU7 whole entry partner): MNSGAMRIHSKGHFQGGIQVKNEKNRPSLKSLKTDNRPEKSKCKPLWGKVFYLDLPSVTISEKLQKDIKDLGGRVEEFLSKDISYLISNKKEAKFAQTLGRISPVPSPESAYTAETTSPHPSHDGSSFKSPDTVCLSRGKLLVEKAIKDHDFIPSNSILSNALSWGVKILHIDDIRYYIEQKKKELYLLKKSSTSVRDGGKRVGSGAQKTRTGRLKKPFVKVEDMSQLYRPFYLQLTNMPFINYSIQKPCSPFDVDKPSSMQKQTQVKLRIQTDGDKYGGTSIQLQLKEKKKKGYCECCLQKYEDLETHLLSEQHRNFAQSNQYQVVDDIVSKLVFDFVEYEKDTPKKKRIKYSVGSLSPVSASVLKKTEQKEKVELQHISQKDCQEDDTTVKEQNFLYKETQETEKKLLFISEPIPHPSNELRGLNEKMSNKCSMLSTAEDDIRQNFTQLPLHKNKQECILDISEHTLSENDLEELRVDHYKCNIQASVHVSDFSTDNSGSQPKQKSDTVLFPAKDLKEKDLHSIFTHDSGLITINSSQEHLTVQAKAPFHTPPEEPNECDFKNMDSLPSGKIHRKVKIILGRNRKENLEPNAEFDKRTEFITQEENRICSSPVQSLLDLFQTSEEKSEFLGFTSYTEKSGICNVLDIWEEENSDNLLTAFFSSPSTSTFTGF
smiles,measurement,setting,value
O=C(O)/C=C\C(=O)O.O=c1[nH]c([C@@H]2CC3CCN2CC3)nc2c3c(sc12)-c1cn[nH]c1CCC3,IC50,"CDC7/DBF4 kinase; first assay, read-out: IC50 (nM) First assay",3.49 nM
same,IC50,"CDC7/DBF4 kinase; mean of two assays, read-out: IC50 (nM) Mean",2.92 nM
same,IC50,"CDC7/DBF4 kinase; second assay, read-out: IC50 (nM) Second assay",2.35 nM
same,inhibitory effect on enzyme CDC7/DBF4,CDC7/DBF4 kinase; conclusion in words,relatively strong inhibitory effect
same,Appearance,[1]; 0 days,White
same,ee %,[1]; 0 days,99.028%
same,impurity at RRT 0.31,[1]; 0 days,0.02
same,Appearance,[1]; 25/92.5% RH-5 days,White
same,TRS(%) total impurity content,[1]; 25/92.5% RH-5 days,0.03%
same,ee %,[1]; 25/92.5% RH-5 days,98.77%
same,impurity at RRT 0.31,[1]; 25/92.5% RH-5 days,0.03
same,Appearance,[1]; 25/92.5% RH-10 days,White
same,TRS(%) total impurity content,[1]; 25/92.5% RH-10 days,0.06%
same,ee %,[1]; 25/92.5% RH-10 days,98.958%
same,impurity at RRT 0.31,[1]; 25/92.5% RH-10 days,0.03
same,impurity at RRT 1.40,[1]; 25/92.5% RH-10 days,0.03
same,Appearance,[1]; 40° C./75% RH-1 month,White
same,TRS(%) total impurity content,[1]; 40° C./75% RH-1 month,0.02%
same,ee %,[1]; 40° C./75% RH-1 month,99.380%
same,impurity at RRT 0.31,[1]; 40° C./75% RH-1 month,0.02
same,Appearance,[1]; 40° C./75% RH-2 months,White
same,TRS(%) total impurity content,[1]; 40° C./75% RH-2 months,0.02%
same,ee %,[1]; 40° C./75% RH-2 months,100%
same,impurity at RRT 0.91,[1]; 40° C./75% RH-2 months,0.02
same,Appearance,[1]; 40° C./75% RH-3 months,White
same,TRS(%) total impurity content,[1]; 40° C./75% RH-3 months,0%
same,ee %,[1]; 40° C./75% RH-3 months,100%
same,Appearance,[1]; 40° C./75% RH-10 days,White
same,TRS(%) total impurity content,[1]; 40° C./75% RH-10 days,0.04%
same,ee %,[1]; 40° C./75% RH-10 days,99.164%
same,impurity at RRT 0.23,[1]; 40° C./75% RH-10 days,0.02
same,impurity at RRT 0.31,[1]; 40° C./75% RH-10 days,0.02
same,Appearance,[1]; 60° C.-5 days,White
same,TRS(%) total impurity content,[1]; 60° C.-5 days,0.06%
same,ee %,[1]; 60° C.-5 days,98.632%
same,impurity at RRT 0.23,[1]; 60° C.-5 days,0.03
same,impurity at RRT 0.31,[1]; 60° C.-5 days,0.03
same,Appearance,[1]; 60° C.-10 days,White
same,TRS(%) total impurity content,[1]; 60° C.-10 days,0.10%
same,ee %,[1]; 60° C.-10 days,98.900%
same,impurity at RRT 0.23,[1]; 60° C.-10 days,0.02
same,impurity at RRT 0.31,[1]; 60° C.-10 days,0.03
same,impurity at RRT 1.08,[1]; 60° C.-10 days,0.05
same,Appearance,[1]; 60° C./75% RH-1 month,White
same,TRS(%) total impurity content,[1]; 60° C./75% RH-1 month,0.08%
same,ee %,[1]; 60° C./75% RH-1 month,100%
same,impurity at RRT 0.23,[1]; 60° C./75% RH-1 month,0.02
same,impurity at RRT 0.98,[1]; 60° C./75% RH-1 month,0.03
same,impurity at RRT 0.99,[1]; 60° C./75% RH-1 month,0.03
same,Appearance,[1]; 60° C./75% RH-10 days,White
same,TRS(%) total impurity content,[1]; 60° C./75% RH-10 days,0.03%
same,ee %,[1]; 60° C./75% RH-10 days,98.872%
same,impurity at RRT 0.23,[1]; 60° C./75% RH-10 days,0.03
same,stability (impurity content) under high temperature and high humidity conditions,[1]; conclusion in words,the stability is good
same,category of hygroscopicity,[2],non-hygroscopic or hardly hygroscopic
same,IC50,"COLO205 cells; first assay, read-out: COLO205(nM) IC50 First assay",14.3 nM
same,IC50,"COLO205 cells; mean of two assays, read-out: COLO205(nM) IC50 Mean",14.5 nM
same,IC50,"COLO205 cells; second assay, read-out: COLO205(nM) IC50 Second assay",14.7 nM
same,inhibitory effect on COLO205 cells,COLO205 cells; conclusion in words,relatively strong inhibitory effect
